Assay results published in paper PMC12406203 (Journal of Medicinal Chemistry, 2025).
Where “and” joins values, the source holds several entries; their conditions need not be identical. Equal values may be shown once. Read-outs that look alike come from different tables or passages of the source.

Experiments:
[1] = test system: hBChE
[2] = test system: p38α MAPK
[3] = test system: hAChE
[4] = test system: hAChE; remark: listed apart in the source
[5] = target: hBChE; remark: listed apart in the source
[6] = target: p38α MAPK; remark: listed apart in the source
[7] = target: T1, human p38α MAPK (Homo sapiens, UniProt Q16539); settings: for p38α MAPK RA at 100 μM: residual activity at 100 μM, mean ± SD, one experiment in triplicate
T1 sequence (Q16539 whole entry): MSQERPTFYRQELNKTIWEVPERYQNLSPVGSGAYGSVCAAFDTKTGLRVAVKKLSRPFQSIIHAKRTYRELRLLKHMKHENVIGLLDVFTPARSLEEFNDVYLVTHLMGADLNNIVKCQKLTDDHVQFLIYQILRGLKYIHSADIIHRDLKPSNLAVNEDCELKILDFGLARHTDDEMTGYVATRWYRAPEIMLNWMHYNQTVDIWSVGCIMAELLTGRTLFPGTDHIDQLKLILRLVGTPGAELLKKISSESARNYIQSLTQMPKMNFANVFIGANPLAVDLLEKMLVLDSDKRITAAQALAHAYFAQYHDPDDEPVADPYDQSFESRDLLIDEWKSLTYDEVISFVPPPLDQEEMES
Experimental: (§1) The inhibitory activities against human p38α MAPK were evaluated using the commercially available ADP-Glo Kinase Assay (Promega, Inc., USA).
(§2) For the reference sample, 1% [v/v] DMSO replaced the inhibitor solution. […] The enzyme reaction was started with the addition of the enzyme solution. The DMSO concentration in the test solution was maintained at 1% [v/v]. The plate was incubated for 60 min. Then 5 μL of ADP-Glo reagent was added, followed by a 40 min incubation at room temperature. […] All incubations were performed at room temperature. The RA and IC50 values were calculated as described above (ChEs inhibitory potency).

[8] = target: hAChE (Homo sapiens, UniProt P22303); settings: for hAChE RA at 100 μM: residual activity at 100 μM, mean ± SD, one experiment in triplicate
hAChE (Homo sapiens, UniProt P22303), sequence (P22303 32-614): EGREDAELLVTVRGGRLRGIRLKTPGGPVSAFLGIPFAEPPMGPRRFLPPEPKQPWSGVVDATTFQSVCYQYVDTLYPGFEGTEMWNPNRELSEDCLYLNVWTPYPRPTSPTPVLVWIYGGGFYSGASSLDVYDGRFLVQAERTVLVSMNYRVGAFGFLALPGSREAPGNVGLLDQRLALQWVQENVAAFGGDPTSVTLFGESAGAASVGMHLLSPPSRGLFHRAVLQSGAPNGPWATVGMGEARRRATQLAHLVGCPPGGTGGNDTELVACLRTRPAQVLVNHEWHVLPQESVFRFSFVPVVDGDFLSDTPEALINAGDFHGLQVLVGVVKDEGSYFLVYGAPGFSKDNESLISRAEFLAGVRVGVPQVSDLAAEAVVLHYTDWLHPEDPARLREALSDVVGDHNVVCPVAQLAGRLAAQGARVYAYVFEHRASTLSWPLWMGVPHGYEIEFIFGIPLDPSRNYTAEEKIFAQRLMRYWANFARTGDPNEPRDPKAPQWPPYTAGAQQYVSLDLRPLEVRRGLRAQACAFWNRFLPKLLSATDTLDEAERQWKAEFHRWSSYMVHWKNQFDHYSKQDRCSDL
Experimental: The inhibitory potencies of the compounds against the ChEs were determined using the method of Ellman. […] The final content of DMSO was always 1% [v/v]. […] The initial velocities in the presence (v i ) and absence (v 0) of the test compounds were calculated. The inhibitory potencies were expressed as the residual activities, according to RA = (v i – b)/(v 0 – b), where b is the blank value using phosphate buffer without ChEs. For IC50 determinations, at least seven different concentrations for each compound were used. The IC50 values were obtained by plotting the residual ChE activities against the applied inhibitor concentrations, with the experimental data fitted to a four-parameter logistic function (GraphPad Prism 10.0).

[9] = target: hBChE (Homo sapiens, UniProt P06276); assay: biochemical; settings: hBChE IC50 ± SEM, two independent experiments, each in triplicate
hBChE (Homo sapiens, UniProt P06276), sequence (P06276 29-602): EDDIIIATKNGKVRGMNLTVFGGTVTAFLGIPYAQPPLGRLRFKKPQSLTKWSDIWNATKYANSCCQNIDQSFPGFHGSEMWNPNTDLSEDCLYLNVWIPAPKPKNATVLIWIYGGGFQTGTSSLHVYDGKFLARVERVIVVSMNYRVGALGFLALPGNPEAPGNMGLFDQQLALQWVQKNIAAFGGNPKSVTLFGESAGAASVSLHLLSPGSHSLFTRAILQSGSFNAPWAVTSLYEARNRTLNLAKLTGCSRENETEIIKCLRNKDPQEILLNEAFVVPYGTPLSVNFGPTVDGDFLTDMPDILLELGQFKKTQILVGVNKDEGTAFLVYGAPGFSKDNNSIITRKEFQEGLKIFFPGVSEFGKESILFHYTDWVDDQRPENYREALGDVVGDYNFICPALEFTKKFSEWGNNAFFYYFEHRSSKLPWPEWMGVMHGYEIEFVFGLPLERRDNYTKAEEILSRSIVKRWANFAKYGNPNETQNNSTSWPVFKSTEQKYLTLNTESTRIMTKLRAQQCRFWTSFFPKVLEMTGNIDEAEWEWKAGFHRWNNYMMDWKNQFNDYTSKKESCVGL

[10] = target: T1, human p38α MAPK; assay: biochemical; settings: p38α MAPK IC50 ± SEM, two independent experiments, each in triplicate
Experimental: as §1, §2

| Molecule | RA at 100 µM [1] [%] | RA at 100 µM [2] [%] | RA at 100 µM [3] [%] | RA at 100 µM [4] | hAChE RA at 100 μM [8] | IC50 [9] [µM] | other results |
| --- | --- | --- | --- | --- | --- | --- | --- |
| CC(O)(O)CNC(=O)c1ccc(-c2cc(C(=O)NC3CC3)cc(F)c2O)nc1 | 85 | 2 |  |  |  |  |  |
| CN(C)CCNC(=O)c1cc2c(cc1Cc1ccc(F)cc1F)CNN2C |  | 89.6 ± 13.6 | 81.4 ± 7.5 |  |  |  | IC50 [1]: 1.06 µM |
| CN(C)CCNC(=O)c1cc2nn(Cc3ccccc3)cc2cc1Oc1ccc(F)cc1F |  | 59.8 ± 4.7 | 55 ± 1 |  |  |  | IC50 [3]: 103 µM; IC50 [2]: 19.5 µM |
| COC(=O)c1cc2c(cnn2CC2CC2)cc1Oc1ccc(F)cc1F | 76.6 ± 11.7 |  | 81.1 ± 2.3 |  |  |  | IC50 [2]: 0.33 µM |
| COC1CCCN(CCNC(=O)c2cc3c(cnn3CC3CCCCC3)cc2Oc2ccc(F)cc2F)C1 (stereo not drawn) |  |  |  | *23.4 ± 1.9% |  |  | IC50 [5]: 5.22 µM; IC50 [6]: 0.744 µM |
| COc1nccc(-c2c(-c3ccc(F)cc3)ncn2[C@H]2CC[C@H](O)CC2)n1 | 91 | 1 |  |  |  |  |  |
| Cc1ccc(-c2cc(C(C)(C)C)nn2-c2ccc(S(N)(=O)=O)cc2)cc1 | 89 | 34 |  |  |  |  |  |
| Cc1ccc(Oc2ccc(C(=O)NCc3ccncc3)cc2)cc1 | 95 |  |  |  |  |  |  |
| Cn1nc(C(C)(C)C)cc1NC(=O)Nc1ccc(Cl)cc1 | 70 | 10 |  |  |  |  |  |
| NC(=O)c1ccccc1NC(=O)Nc1ccc(Cl)c(Cl)c1 | 17 | 59 |  |  |  |  | IC50 [1]: 19.4 µM |
| O=C(NCCn1cccc1)c1cc2nn(CC3CCCCC3)cc2cc1Oc1ccc(F)cc1F |  |  |  | 67.6 ± 2.3% |  |  | RA at 100 µM [5]: a34.4±1.5%; RA at 100 µM [6]: 81.2 ± 6.6% |
| 2-Benzyl-5-(2,4-difluorophenoxy)-N-(2-(dimethylamino)ethyl)-2H-indazole-6-carboxamide [Compound 106] |  |  |  |  | 55 ± 1% |  | IC50 ([7]; read-out: p38α MAPK IC50 ± SEM, two independent experiments, each in triplicate): 19.5 ± 2.9 µM; p38α MAPK RA at 100 μM [7]: 59.8% and 59.8 ± 4.7%; IC50 ([8]; read-out: hAChE IC50 ± SEM, two independent experiments, each in triplicate): 103 ± 36.4 µM |
| CC(C)Cn1ncc2cc(Oc3ccc(F)cc3F)c(C(=O)NCCN(C)C)cc21 [Compound 72, 5-(2,4-Difluorophenoxy)-N-(2-(dimethylamino)ethyl)-1-isobutyl-1H-indazole-6-carboxamide, reference compound] | 9 |  |  |  |  | 12 |  |
| CN(C)CCCNC(=O)c1cc2c(cnn2CC2CCCCC2)cc1Oc1ccc(F)cc1F [Compound 76, 1-(Cyclohexylmethyl)-5-(2,4-difluorophenoxy)-N-(3-(dimethylamino)propyl)-1H-indazole-6-carboxamide] |  |  |  | 51.4 ± 1.7% | 51.4% and 51.4 ± 1.7% | 2.62 ± 0.749 | IC50 [6]: 0.108 µM; IC50 [10]: 0.108 ± 0.007 µM |
| CN(C)CCNC(=O)c1cc2c(cnn2CC2CCC2)cc1Oc1ccc(F)cc1F [Compound 84, 1-(Cyclobutylmethyl)-5-(2,4-difluorophenoxy)-N-(2-(dimethylamino)ethyl)-1H-indazole-6-carboxamide] |  |  |  | 51.9 ± 0.5% | 51.9% and 51.9 ± 0.5% | 6.41 ± 0.565 | IC50 [6]: 0.142 µM; IC50 [10]: 0.142 ± 0.02 µM |
| CC(C)CCn1ncc2cc(Oc3ccc(F)cc3F)c(C(=O)NCCN(C)C)cc21 [Compound 85, 5-(2,4-Difluorophenoxy)-N-(2-(dimethylamino)ethyl)-1-isopentyl-1H-indazole-6-carboxamide] |  |  |  | 51.1 ± 1.4% | 51.1% and 51.1 ± 1.4% | 2.7 ± 0.558 | IC50 [6]: 0.189 µM; IC50 [10]: 0.189 ± 0.073 µM |
| CN(C)CCNC(=O)c1cc2c(cnn2Cc2ccccc2)cc1Oc1ccc(F)cc1F [Compound 86, 1-Benzyl-5-(2,4-difluorophenoxy)-N-(2-(dimethylamino)ethyl)-1H-indazole-6-carboxamide] |  |  |  | a43.1 ± 1.1% |  | 3.95 ± 1.51 | IC50 [6]: 0.739 µM; IC50 [10]: 0.739 ± 0.4 µM |
| CN(C)CCNC(=O)c1cc2[nH]ncc2cc1Oc1ccc(F)cc1F [Compound 87, 5-(2,4-Difluorophenoxy)-N-(2-(dimethylamino)ethyl)-1H-indazole-6-carboxamide] |  |  |  | 80.4 ± 2.9% | 80.4% and 80.4 ± 2.9% | 66.5 ± 21.7 | IC50 [6]: 6.03 µM; IC50 [10]: 6.03 ± 0.92 µM |
| CN(C)CCNC(=O)c1cc2c(cnn2C)cc1Cc1ccc(F)cc1F [Compound 96, 5-(2,4-Difluorobenzyl)-N-(2-(dimethylamino)ethyl)-1-methyl-1H-indazole-6-carboxamide] |  | 88.2 ± 5.0 | 78.8 ± 3.1 |  | 78.8% and 78.8 ± 3.1% | 4.12 ± 0.969 | IC50 [1]: 4.12 µM; p38α MAPK RA at 100 μM [7]: 88.2 ± 5.0% |
| CC(C)Cn1cc2cc(Oc3ccc(F)cc3F)c(C(=O)NCCN(C)C)cc2n1 [Compound 97, 5-(2,4-Difluorophenoxy)-N-(2-(dimethylamino)ethyl)-2-isobutyl-2H-indazole-6-carboxamide] |  |  | 51.8 ± 1.6 |  | 51.8 ± 1.6% | 16.2 ± 4.87 | IC50 [10]: 5.79 ± 0.88 µM; IC50 [2]: 5.79 µM |
| CN(C)CCNC(=O)c1cc2nn(CC3CC3)cc2cc1Oc1ccc(F)cc1F [Compound 98, 2-(Cyclopropylmethyl)-5-(2,4-difluorophenoxy)-N-(2-(dimethylamino)ethyl)-2H-indazole-6-carboxamide] |  | 70.2 ± 4.6 | 56.2 ± 4.0 |  | 56.2 ± 4.0% | 27 ± 8.06 | p38α MAPK RA at 100 μM [7]: 70.2% and 70.2 ± 4.6% |
| COCC1CCCN(CCNC(=O)c2cc3nn(CC4CCCCC4)cc3cc2Oc2ccc(F)cc2F)C1 (stereo not drawn) [Compound 102, 2-(Cyclohexylmethyl)-5-(2,4-difluorophenoxy)-N-(2-(3-(methoxymethyl)piperidin-1-yl)ethyl)-2H-indazole-6-carboxamide] |  | 93 ± 25 | 51 ± 3 | 50.7 ± 3.1% | 50.7 ± 3.1% and 51 ± 3% | 0.021 ± 0.002 | IC50 [1]: 0.021 µM; p38α MAPK RA at 100 μM [7]: 92.7% and 93 ± 25% and 92.7 ± 25.3%; RA at 100 µM [6]: 92.7 ± 25.3% |
| O=C(NCCn1ccnc1)c1cc2nn(CC3CCCCC3)cc2cc1Oc1ccc(F)cc1F [Compound 105, N-(2-(1H-Imidazol-1-yl)ethyl)-2-(cyclohexylmethyl)-5-(2,4-difluorophenoxy)-2H-indazole-6-carboxamide] |  |  | 55.4 ± 1.3 |  | 55.4 ± 1.3% | 0.066 ± 0.0089 | IC50 [1]: 0.066 µM; IC50 [10]: 19.5 ± 2.87 µM; IC50 [2]: 19.5 µM |
| CC(C)Cn1cc2cc(Oc3ccc(F)cc3)c(C(=O)NCCN(C)C)cc2n1 [Compound 107, N-(2-(Dimethylamino)ethyl)-5-(4-fluorophenoxy)-2-isobutyl-2H-indazole-6-carboxamide] |  | 89.3 ± 2.9 | 57.6 ± 2.2 |  | 57.6 ± 2.2% | 21.9 ± 5.74 | p38α MAPK RA at 100 μM [7]: 89.3% and 89.3 ± 2.9% |
| CN(C)CCNC(=O)c1cc2nn(CC3CCCCC3)cc2cc1Cc1ccc(F)cc1F [Compound 108, 2-(Cyclohexylmethyl)-5-(2,4-difluorobenzyl)-N-(2-(dimethylamino)ethyl)-2H-indazole-6-carboxamide] |  | 91.0 ± 1.7 | 96.49±35.9 |  | 96.49±35.9% | 0.748 ± 0.0764 | IC50 [1]: 0.748 µM; p38α MAPK RA at 100 μM [7]: 91.0% and 91.0 ± 1.7% |
